Test results from patent US11826414B2, “Measurement of afucosylated IgG Fc glycans and related vaccination methods” (priority 2017, dated 2023).
Read-outs that look alike come from different tables or passages of the source.

How the values were obtained:
dengue 2 [1] = type: cell-based, dengue virus; details: for Inhibition of dengue 2 infection (ADE): FcγRIIa+FcγRIIIa+ monocytes, pre-incubation with inhibitor
dengue 2 [2] = type: cell-based, dengue virus; details: FcγRIIa+FcγRIIIa− U937 cells treated with PMA/ionomycin
Zika virus (ZIKV) = type: cell-based; details: DC-SIGN U937 cells, no antibodies present
[3] = test system: H1N1 influenza virus (IAV); type: cell-based; details: DC-SIGN U937 cells, no antibodies present
[4] = test system: H3N2 influenza virus (IAV); type: cell-based; details: DC-SIGN U937 cells, no antibodies present
[5] = test system: FcγRIIa^+FcγRIIIa^+ monocytes; details: at concentrations tested

11R-VIVIT
Inhibition of dengue infection (dengue 2 [1]; 5 μM peptide, all MOIs tested): > 70% | Inhibition of dengue 2 infection (ADE) (dengue 2 [1]): inhibited dengue 2 infection in a concentration-dependent manner | Inhibition of dengue 2 replication, time of treatment (dengue 2 [1]; treatment of cells up to 2 hours following infection): inhibited dengue 2 replication | Inhibition of enhanced infection after PMA/ionomycin treatment (dengue 2 [2]): could be inhibited | Inhibition of infection (Zika virus (ZIKV)): did not inhibit | Inhibition of infection [3]: did not inhibit | Inhibition of infection [4]: did not inhibit | Cell viability [5]: unaffected

Cc1cccc(Nc2nc(N[C@@H]3CCCC[C@@H]3N)ncc2C(N)=O)c1 [PRT318]
Inhibition of dengue 2 infection (ADE) (dengue 2 [1]): inhibited in FcγRIIa^+FcγRIIIa^+ monocytes in a concentration-dependent manner | Inhibition of dengue 2 infection (ADE) (dengue 2 [1]; listed as PRT): inhibited dengue 2 infection in FcγRIIa+FcγRIIIa+ monocytes in a concentration-dependent manner
